Test results reported in ChEMBL document CHEMBL3804761, “Synthesis of a stable and orally bioavailable englerin analogue” (Bioorg Med Chem Lett, 2016).
The source made the active and inactive calls. No cut-off for these calls is given here.

Target: Protein kinase C (PKC) (Homo sapiens) (UniProt O94806+P41743+P17252+P05129+Q05655+P05771+Q05513+Q02156+P24723+Q15139+Q04759)
Assay: Activation of PKC in human 786-0 cells at 1 uM
Format: cell-based

Row | SMILES | Activity
1 | CC/C(C)=C/C(=O)O[C@@H]1[C@H](C)C[C@H]2O[C@]1(O)[C@@H](O)[C@@]1(C)CC[C@H](O1)C(C)(C)/C=C/[C@H](C)C2=O | Active
2 | CC(C)[C@@]12C[C@@H](OC(=O)CO)[C@@](C)(O1)[C@@H]1CC[C@@H](C)[C@H]1[C@@H]2OC(=O)/C(Cl)=C/c1ccccc1 | Active
